Source: publication PMC10504751, “Chalcone/1,3,4-Oxadiazole/Benzimidazole hybrids as novel anti-proliferative agents inducing apoptosis and inhibiting EGFR & BRAFV^600E” (BMC Chemistry, 2023)

Assays:
Format in all cases: cell-based
HT-29 = experiment: Propidium iodide anti-proliferative assay; conditions: Homo sapiens, 48 h incubation, read-out: IC50 ± SEM HT-29
Summary of the method: (§1)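 Cells seeded at 3000-7500 cells/well and grown 24 h at 37 °C, then treated with compounds (10 µM in 0.1% DMSO, triplicate; IC50 runs at varied concentrations) for 48 h. PI added, plates frozen 24 h at -80 °C and thawed, fluorescence read at 530/620 nm; % cytotoxicity versus 0.1% DMSO control.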

Panc-1 = experiment: Propidium iodide anti-proliferative assay; conditions: Homo sapiens, 48 h incubation, read-out: IC50 ± SEM Panc-1
Summary of the method: as §1

A-549 = experiment: Propidium iodide anti-proliferative assay; conditions: Homo sapiens, A549; 48 h incubation; read-out: IC50 ± SEM A-549
Summary of the method: as §1

MCF-7 = experiment: Propidium iodide anti-proliferative assay; conditions: Homo sapiens, MCF7; 48 h incubation; read-out: IC50 ± SEM MCF-7
Summary of the method: as §1

786-0 = experiment: NCI one-dose SRB anti-proliferative screen; conditions: Homo sapiens; 786-0 (Renal Cancer), NCI one dose 10 µM; read-out: Cell growth inhibition %
Summary of the method: (§2)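 Each hybrid is applied once, at 10 µM, and anti-proliferative effect is quantified by SRB colorimetry.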

MDA-MB-468 = experiment: NCI one-dose SRB anti-proliferative screen; conditions: Homo sapiens; MDA-MB-468 (Breast Cancer), NCI one dose 10 µM; read-out: Cell growth inhibition %
Summary of the method: as §2

MDA-MB-435 = experiment: NCI one-dose SRB anti-proliferative screen; conditions: Homo sapiens; MDA-MB-435 (Melanoma), NCI one dose 10 µM; read-out: Cell growth inhibition %
Summary of the method: as §2

U251 = experiment: NCI one-dose SRB anti-proliferative screen; conditions: Homo sapiens, U-251; U251 (CNS Cancer), NCI one dose 10 µM; read-out: Cell growth inhibition %
Summary of the method: as §2

HS 578T = experiment: NCI one-dose SRB anti-proliferative screen; conditions: Homo sapiens; HS 578T (Breast Cancer), NCI one dose 10 µM; read-out: Cell growth inhibition %
Summary of the method: as §2

UACC-62 = experiment: NCI one-dose SRB anti-proliferative screen; conditions: Homo sapiens; UACC-62 (Melanoma), NCI one dose 10 µM; read-out: Cell growth inhibition %
Summary of the method: as §2

ACHN = experiment: NCI one-dose SRB anti-proliferative screen; conditions: Homo sapiens; ACHN (Renal Cancer), NCI one dose 10 µM; read-out: Cell growth inhibition %
Summary of the method: as §2

CAKI-1 = experiment: NCI one-dose SRB anti-proliferative screen; conditions: Homo sapiens; CAKI-1 (Renal Cancer), NCI one dose 10 µM; read-out: Cell growth inhibition %
Summary of the method: as §2

RPMI-8226 = experiment: NCI one-dose SRB anti-proliferative screen; conditions: Homo sapiens; RPMI-8226 (Leukemia), NCI one dose 10 µM; read-out: Cell growth inhibition %
Summary of the method: as §2

SR = experiment: NCI one-dose SRB anti-proliferative screen; conditions: Homo sapiens; SR (Leukemia), NCI one dose 10 µM; read-out: Cell growth inhibition %
Summary of the method: as §2

A498 = experiment: NCI one-dose SRB anti-proliferative screen; conditions: Homo sapiens; A498 (Renal Cancer), NCI one dose 10 µM; read-out: Cell growth inhibition %
Summary of the method: as §2

OVCAR-3 = experiment: NCI one-dose SRB anti-proliferative screen; conditions: Homo sapiens; OVCAR-3 (Ovarian Cancer), NCI one dose 10 µM; read-out: Cell growth inhibition %
Summary of the method: as §2

SN12C = experiment: NCI one-dose SRB anti-proliferative screen; conditions: Homo sapiens, SN 12C (Renal Cancer), NCI one dose 10 µM, read-out: Cell growth inhibition %
Summary of the method: as §2

SK-MEL-2 = experiment: NCI one-dose SRB anti-proliferative screen; conditions: Homo sapiens; SK-MEL-2 (Melanoma), NCI one dose 10 µM; read-out: Cell growth inhibition %
Summary of the method: as §2

EKVX = experiment: NCI one-dose SRB anti-proliferative screen; conditions: Homo sapiens; EKVX (Non-Small Cell Lung Cancer), NCI one dose 10 µM; read-out: Cell growth inhibition %
Summary of the method: as §2

NCI-H226 = experiment: NCI one-dose SRB anti-proliferative screen; conditions: Homo sapiens; NCI-H226 (Non-Small Cell Lung Cancer), NCI one dose 10 µM; read-out: Cell growth inhibition %
Summary of the method: as §2

HOP-62 = experiment: NCI one-dose SRB anti-proliferative screen; conditions: Homo sapiens; HOP-62 (Non-Small Cell Lung Cancer), NCI one dose 10 µM; read-out: Cell growth inhibition %
Summary of the method: as §2

| SMILES | IC50 (HT-29) | IC50 (Panc-1) | IC50 (A-549) | IC50 (MCF-7) | inhibition at 10 µM (786-0) | inhibition at 10 µM (MDA-MB-468) | inhibition at 10 µM (MDA-MB-435) | inhibition at 10 µM (U251) | inhibition at 10 µM (HS 578T) | inhibition at 10 µM (UACC-62) | inhibition at 10 µM (ACHN) | inhibition at 10 µM (CAKI-1) | inhibition at 10 µM (RPMI-8226) | inhibition at 10 µM (SR) | inhibition at 10 µM (A498) | inhibition at 10 µM (OVCAR-3) | inhibition at 10 µM (SN12C) | inhibition at 10 µM (SK-MEL-2) | inhibition at 10 µM (EKVX) | inhibition at 10 µM (NCI-H226) | further results |
| --- | --- | --- | --- | --- | --- | --- | --- | --- | --- | --- | --- | --- | --- | --- | --- | --- | --- | --- | --- | --- | --- |
| COc1ccc(-c2nc3cc(-c4nnc(SCC(=O)Nc5ccc(C(=O)/C=C/c6ccc(Cl)cc6)cc5)o4)ccc3[nH]2)cc1OC [Compound 7q, 2-{5-[2-(3,4-Dimethoxyphenyl)-1 H-benzo[d]imidazol-5-yl]-1,3,4-oxadiazol-2-ylthio}-N-{4-[(E)-3-(4-chlorophenyl)acryloyl]phenyl}acetamide] | 3700 ± 500 nM | 3800 ± 500 nM | 3400 ± 400 nM | 3020 ± 300 nM | 0% | 0% | 0% | 0% | 3.98% | 1.95% | 5.74% | 0% | 24.5% | 27% | 0% | 0% | 5.1% | 0% | 8.14% | 1.46% | inhibition at 10 µM (HOP-62): 0% |
| COc1ccc(/C=C/C(=O)c2ccc(NC(=O)CSc3nnc(-c4ccc5[nH]c(-c6ccc(OC)c(OC)c6)nc5c4)o3)cc2)cc1 [Compound 7r, 2-{5-[2-(3,4-Dimethoxyphenyl)-1 H-benzo[d]imidazol-5-yl]-1,3,4-oxadiazol-2-ylthio}-N-{4-[(E)-3-(4-methoxyphenyl)acryloyl]phenyl}acetamide] | 4200 ± 500 nM | 3900 ± 500 nM | 3600 ± 500 nM | 3100 ± 500 nM | 0% | 0% | 0% | 0% | 13.2% | 11% | 2.15% | 0.08% | 14.7% | 30.6% | 0% | 0% | 6.98% | 0% | 3.51% | 2.08% | inhibition at 10 µM (HOP-62): 0% |
| COc1cc(-c2nc3cc(-c4nnc(SCC(=O)Nc5ccc(C(=O)/C=C/c6ccccc6)cc5)o4)ccc3[nH]2)cc(OC)c1OC [Compound 7u, 2-{5-[2-(3,4,5-Trimethoxyphenyl)-1 H-benzo[d]imidazol-5-yl]-1,3,4-oxadiazol-2-ylthio}-N-{4-[(E)-3-phenylacryloyl]phenyl}acetamide] | 2700 ± 500 nM | 2400 ± 200 nM | 2250 ± 500 nM | 2100 ± 80 nM | 0% | 0% | 6.83% | 9.89% | 9.37% | 8.01% | 1.08% | 0% | 24.2% | 40.3% | 0% | 0% | 13.2% | 0% | 0% | 10.4% | inhibition at 10 µM (HOP-62): 0% |
| COc1cc(-c2nc3cc(-c4nnc(SCC(=O)Nc5ccc(C(=O)/C=C/c6ccc(Cl)cc6)cc5)o4)ccc3[nH]2)cc(OC)c1OC [Compound 7v, 2-{5-[2-(3,4,5-Trimethoxyphenyl)-1 H-benzo[d]imidazol-5-yl]-1,3,4-oxadiazol-2-ylthio}-N-{4-[(E)-3-(4-chlorophenyl)acryloyl]phenyl}acetamide] | 2900 ± 500 nM | 2600 ± 200 nM | 2450 ± 500 nM | 2200 ± 80 nM | 9.2% | 6.96% | 1.02% | 22.4% | 12.1% | 16% | 3.22% | 2.81% | 42.8% | 39.6% | 16.8% | 2.13% | 9.61% | 0% | 0.51% | 8.31% | inhibition at 10 µM (HOP-62): 0% |
